Measurements published in patent US20100285443A1, “Diagnostic Methods for Diseases Caused by a HPV Infection Comprising Determining the Methylation Status of the HPV Genome” (OncoMethylome Sciences SA, priority 2006, published 2010).

Columns and labels:
E6 and E7 = experiment: Expression of HPV-16 E6 and E7 oncoproteins (Western blotting); format: cell-based, HPV16; details: after induced hypomethylation of the E2-binding sites
Description: The detection of the expression of viral oncogenic proteins was realized by Western blotting technique using commercially available antibodies, raised against E6 and E7.
(§1) The described HPV16 DNA methylomes also reflect the proposed expression patterns of the virus in cervical tumorigenesis, characterized by a significant overexpression of E6 and E7 in the carcinomas. […] This event is particularly observed for the E1/E2 region. The protein E2 is an inhibitor of cell proliferation by regulating the viral URR, repressing the E6 and E7 oncoproteins and ultimately causing cell cycle arrest at G2 (Frattini 1997 EMBO J). Thus, the genomic loss of E2 could contribute to the progression of the disease. […] We observe instead methylation of the E2-binding sites at the URR region that are associated with high level of expression of the oncoproteins E6 and E7. Most important, we show by chromatin immunoprecipitation (ChIP) that the E2 viral protein cannot bind to the methylated E2-binding sites at the URR region, and thus leads to E6 and E7 overexpression.

[1] = tested on: E2-binding sites at the URR region; experiment: Chromatin immunoprecipitation (ChIP) of E2 viral protein at the E2-binding sites of the URR; format: cell-based; details: after induced hypomethylation of the E2-binding sites
Description: as §1

HPV16 genome = experiment: DNA methylation of the HPV16 genome (bisulfite genomic sequencing); format: cell-based
Description: To determine the methylation pattern of all […] genes, Bisulfite Genomic Sequencing and Methylation-specific PCR (MSP) were used. Essentially, both detection methods use the C to T conversion by bisulfite when the cytosine is not methylated. The Primers used are described in Table 1 (Bisulfite genomic sequencing—SEQ ID NOs 1 to 42) and Table 2 (Methylation-specific PCR—SEQ ID NOs 43 to 46).
Thus, the viral genome is methylated by the host human cellular DNMTs. Because the integration of HPV16 in the human genome occurs in most cervical tumors and a significant proportion of premalignant lesions, we can consider that human DNMTs might recognize these sequences as “foreign” DNA that needs to be methylated. Indeed in our study, we have confirmed by FISH analyses that the HPV16 genome is integrated in the host cell DNA in CaSki and SiHa.
The described HPV16 DNA methylomes also reflect the proposed expression patterns of the virus in cervical tumorigenesis, characterized by a significant overexpression of E6 and E7 in the carcinomas. […] This event is particularly observed for the E1/E2 region. The protein E2 is an inhibitor of cell proliferation by regulating the viral URR, repressing the E6 and E7 oncoproteins and ultimately causing cell cycle arrest at G2 (Frattini 1997 EMBO J). Thus, the genomic loss of E2 could contribute to the progression of the disease. […]

SMILES: Nc1ncn([C@H]2C[C@H](O)[C@@H](CO)O2)c(=O)n1 [5-aza-2′-deoxycytidine]
- E6 and E7 expression (E6 and E7): marked reduction
- recruitment of E2 to its URR binding sites [1]: recruitment of E2 to its URR binding sites
- methylation of the E2-binding sites at the URR region (HPV16 genome): hypomethylation events
